# In the supplement of paper PMC10307832:
# Compound: C1CCC(CC1)N(CCNCCC2=C3C(=C(C=C2)O)NC(=O)CO3)C(=O)CCNCCC4=CC(=C(C=C4)Cl)Cl [AZ505] + COc1cc2c(Oc3ccc(NC(=O)C4(C(=O)Nc5ccc(F)cc5)CC4)cc3F)ccnc2cc1OCCCN1CCOCC1 [Foretinib] (partner 0.25 µM)
# Experiment: relative viability (nuclei count vs DMSO), 5 days (fraction); higher = more cells survive
# Settings: first compound 0.08 µM
# Procedure, shortened: (§1)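 Five library-drug doses in √10 steps were combined with a fixed anchor-drug dose, or a single drug was given alone, by pin tool to lung cancer cell lines in 1536-well plates the day after seeding. Nuclei were stained and counted after 5 days. Relative viability is the nuclei count in treated wells over that in vehicle wells, taken as the median of duplicate plates.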
row,Cell Line,relative viability
1,NCI-H2342,1.07
2,NCI-H1623,0.76
3,NCI-H727,0.998
4,NCI-H1650,0.965
5,EBC-1,0.0937
6,NCI-H1993,0.764
7,SK-LU-1,0.542
8,NCI-H838,0.983
9,LCLC-103H,0.734
10,NCI-H520,0.625
11,NCI-H2126,0.892
12,EMC-BAC-2,0.95
13,NCI-H2085,0.698
14,Calu-6,0.814
15,HCC-366,0.926
16,NCI-H1666,0.946
17,NCI-H596,0.746
18,LK-2,1.28

row,Cell Line,relative viability
1,NCI-H2087,1.12
2,SK-MES-1,0.765
3,H3255,0.81
4,COR-L23,0.878
5,COR-L 105,0.76
6,IA-LM,0.921
7,LOU-NH91,0.872
8,ChaGo-K-1,0.936
9,A549,0.895
10,SW 900,0.85
11,NCI-H2009,1.18
12,NCI-H661,1
13,SW 1573,0.873
14,NCI-H1299,1.01
15,NCI-H2228,0.644
16,NCI-H2023,0.743
17,NCI-H1563,0.928

# Same assay, conditions: first compound 0.253 µM
row,Cell Line,relative viability
1,NCI-H2342,1.02
2,NCI-H1623,0.781
3,NCI-H727,0.861
4,NCI-H1650,1.05
5,EBC-1,0.0894
6,NCI-H1703,0.411
7,NCI-H1993,0.702
8,SK-LU-1,0.58
9,NCI-H838,1.01
10,LCLC-103H,0.857
11,NCI-H520,0.756
12,NCI-H2126,1.16
13,EMC-BAC-2,0.99
14,NCI-H2085,0.887
15,Calu-6,0.901
16,HCC-366,0.878
17,NCI-H1666,1.01
18,NCI-H596,0.897

row,Cell Line,relative viability
1,LK-2,1.34
2,NCI-H2087,1.02
3,SK-MES-1,0.774
4,H3255,1.05
5,COR-L23,0.928
6,COR-L 105,1.29
7,IA-LM,1.21
8,LOU-NH91,0.931
9,ChaGo-K-1,1.11
10,A549,1.06
11,SW 900,0.972
12,NCI-H2009,1.21
13,NCI-H661,1.02
14,SW 1573,0.993
15,NCI-H1299,1.03
16,NCI-H2228,0.799
17,NCI-H2023,0.916
18,NCI-H1563,0.965

# Same assay, conditions: first compound 0.8 µM
row,Cell Line,relative viability
1,NCI-H2342,1.02
2,NCI-H1623,0.834
3,NCI-H727,0.856
4,NCI-H1650,1.34
5,EBC-1,0.0949
6,NCI-H1703,0.335
7,NCI-H1993,0.731
8,SK-LU-1,0.612
9,NCI-H838,0.994
10,LCLC-103H,0.729
11,NCI-H520,0.76
12,NCI-H2126,1.19
13,EMC-BAC-2,0.993
14,NCI-H2085,0.915
15,Calu-6,0.819
16,HCC-366,0.889
17,NCI-H1666,0.917
18,NCI-H596,0.805

row,Cell Line,relative viability
1,LK-2,1.18
2,NCI-H2087,0.997
3,SK-MES-1,0.824
4,H3255,0.924
5,COR-L23,0.909
6,COR-L 105,0.981
7,IA-LM,1.07
8,LOU-NH91,0.909
9,ChaGo-K-1,0.928
10,A549,0.812
11,SW 900,0.968
12,NCI-H2009,1.19
13,NCI-H661,0.981
14,SW 1573,0.918
15,NCI-H1299,0.987
16,NCI-H2228,0.809
17,NCI-H2023,0.869
18,NCI-H1563,0.902

# Same assay, conditions: first compound 2.53 µM
row,Cell Line,relative viability
1,NCI-H2342,1.14
2,NCI-H1623,0.79
3,NCI-H1650,0.865
4,EBC-1,0.0895
5,NCI-H1703,0.366
6,NCI-H1993,0.846
7,SK-LU-1,0.515
8,NCI-H838,0.965
9,LCLC-103H,0.848
10,NCI-H520,0.772
11,NCI-H2126,1.1
12,EMC-BAC-2,0.985
13,NCI-H2085,0.821
14,Calu-6,0.799
15,HCC-366,0.852
16,NCI-H1666,0.9
17,NCI-H596,0.897
18,LK-2,1.08

row,Cell Line,relative viability
1,NCI-H2087,1.14
2,SK-MES-1,0.782
3,H3255,0.872
4,COR-L23,0.863
5,COR-L 105,0.862
6,IA-LM,1.12
7,LOU-NH91,0.869
8,ChaGo-K-1,0.951
9,A549,1.03
10,SW 900,0.927
11,NCI-H2009,1.17
12,NCI-H661,0.984
13,SW 1573,0.817
14,NCI-H1299,1.1
15,NCI-H2228,0.823
16,NCI-H2023,0.854
17,NCI-H1563,0.866

# Same assay, conditions: first compound 8 µM
row,Cell Line,relative viability
1,NCI-H2342,1.14
2,NCI-H1623,0.99
3,NCI-H727,0.993
4,NCI-H1650,1.24
5,EBC-1,0.121
6,NCI-H1703,0.365
7,NCI-H1993,0.963
8,SK-LU-1,0.51
9,NCI-H838,1.01
10,LCLC-103H,0.715
11,NCI-H520,0.745
12,NCI-H2126,1.13
13,EMC-BAC-2,0.961
14,NCI-H2085,1.08
15,Calu-6,0.892
16,HCC-366,0.924
17,NCI-H1666,0.95
18,NCI-H596,0.731

row,Cell Line,relative viability
1,LK-2,1.68
2,NCI-H2087,1.21
3,SK-MES-1,0.738
4,H3255,1.19
5,COR-L23,0.975
6,COR-L 105,0.903
7,IA-LM,1.42
8,LOU-NH91,0.968
9,ChaGo-K-1,0.91
10,A549,1.06
11,SW 900,0.616
12,NCI-H2009,1.17
13,NCI-H661,0.999
14,SW 1573,0.959
15,NCI-H1299,1.1
16,NCI-H2228,0.665
17,NCI-H2023,0.776
18,NCI-H1563,0.93

# Compound: C1CCC(CC1)N(CCNCCC2=C3C(=C(C=C2)O)NC(=O)CO3)C(=O)CCNCCC4=CC(=C(C=C4)Cl)Cl [AZ505] + Cc1cc(Nc2cc(N3CCN(C)CC3)nc(Sc3ccc(NC(=O)C4CC4)cc3)n2)n[nH]1 [Tozasertib] (partner 0.1 µM)
# Experiment: as above
# Settings: first compound 0.08 µM
# Procedure, shortened: as §1
row,Cell Line,relative viability
1,NCI-H2342,0.441
2,NCI-H1623,0.454
3,NCI-H727,0.645
4,NCI-H1650,0.313
5,NCI-H1993,0.611
6,SK-LU-1,0.312
7,NCI-H838,0.253
8,LCLC-103H,0.508
9,NCI-H520,0.441
10,NCI-H2126,0.816
11,EMC-BAC-2,0.268
12,NCI-H2085,0.663
13,HCC-366,0.128
14,NCI-H1666,0.629
15,NCI-H596,0.845
16,LK-2,0.17

row,Cell Line,relative viability
1,NCI-H2087,0.223
2,NCI-H1648,0.469
3,SK-MES-1,0.853
4,H3255,0.639
5,COR-L23,0.181
6,COR-L 105,0.354
7,LOU-NH91,0.654
8,ChaGo-K-1,0.2
9,HCC-44,0.887
10,NCI-H522,0.459
11,SW 900,0.439
12,NCI-H2009,0.714
13,NCI-H661,0.356
14,SW 1573,0.174
15,NCI-H2228,0.23
16,NCI-H2023,0.293

# Same assay, conditions: first compound 0.253 µM
row,Cell Line,relative viability
1,NCI-H2342,0.625
2,NCI-H1623,0.457
3,NCI-H727,0.53
4,NCI-H1650,0.448
5,NCI-H1993,0.529
6,SK-LU-1,0.302
7,NCI-H838,0.286
8,LCLC-103H,0.504
9,NCI-H520,0.389
10,NCI-H2126,0.809
11,EMC-BAC-2,0.323
12,NCI-H2085,0.786
13,HCC-366,0.113
14,NCI-H1666,0.613
15,NCI-H596,0.894
16,LK-2,0.167

row,Cell Line,relative viability
1,NCI-H2087,0.181
2,NCI-H1648,0.581
3,SK-MES-1,0.863
4,H3255,1.17
5,COR-L23,0.177
6,COR-L 105,0.34
7,LOU-NH91,0.696
8,ChaGo-K-1,0.232
9,HCC-44,0.992
10,NCI-H522,0.552
11,SW 900,0.665
12,NCI-H2009,0.738
13,NCI-H661,0.377
14,SW 1573,0.169
15,NCI-H2228,0.279
16,NCI-H2023,0.371

# Same assay, conditions: first compound 0.8 µM
row,Cell Line,relative viability
1,NCI-H2342,0.559
2,NCI-H1623,0.425
3,NCI-H727,0.525
4,NCI-H1650,0.496
5,NCI-H1993,0.58
6,SK-LU-1,0.242
7,NCI-H838,0.257
8,LCLC-103H,0.434
9,NCI-H520,0.44
10,NCI-H2126,0.821
11,EMC-BAC-2,0.299
12,NCI-H2085,0.823
13,HCC-366,0.152
14,NCI-H1666,0.534
15,NCI-H596,0.708
16,LK-2,0.197

row,Cell Line,relative viability
1,NCI-H2087,0.244
2,NCI-H1648,0.408
3,SK-MES-1,0.898
4,H3255,0.564
5,COR-L23,0.22
6,COR-L 105,0.341
7,LOU-NH91,0.577
8,ChaGo-K-1,0.244
9,HCC-44,0.922
10,NCI-H522,0.488
11,SW 900,0.713
12,NCI-H2009,0.805
13,NCI-H661,0.351
14,SW 1573,0.175
15,NCI-H2228,0.164
16,NCI-H2023,0.395

# Same assay, conditions: first compound 2.53 µM
row,Cell Line,relative viability
1,NCI-H2342,0.509
2,NCI-H1623,0.445
3,NCI-H1650,0.369
4,NCI-H1993,0.539
5,SK-LU-1,0.345
6,NCI-H838,0.268
7,LCLC-103H,0.461
8,NCI-H520,0.469
9,NCI-H2126,0.806
10,EMC-BAC-2,0.274
11,NCI-H2085,0.825
12,HCC-366,0.132
13,NCI-H1666,0.525
14,NCI-H596,0.821
15,LK-2,0.167
16,NCI-H2087,0.241
17,NCI-H1648,0.562
18,SK-MES-1,0.785
19,H3255,0.503
20,COR-L23,0.179
21,COR-L 105,0.335
22,LOU-NH91,0.591
23,ChaGo-K-1,0.216
24,HCC-44,0.88
25,NCI-H522,0.603
26,SW 900,0.614
27,NCI-H2009,0.706
28,NCI-H661,0.32
29,SW 1573,0.171
30,NCI-H2228,0.206
